Test results published in patent US20210087188A1, “5,6-DIHYDRO-1 1H-INDOLO{2,3-B}QUINOLIN- 11-ONE COMPOUNDS AS ALK INHIBITORS” (THE REGENTS OF THE UNIVERSITY OF MICHIGAN, priority 2018, published 2021).
Counter-ions that a name gives are not always drawn.

Molecular target: T1, wild-type human ALK protein (cytoplasmic domain, amino acid 1058-1620, N-terminal GST-fusion) (Homo sapiens, UniProt Q9UM73)
T1 construct: The cytoplasmic domain (amino acid 1058-1620) of wild-type human ALK protein; GST (N); purchased Carna Biosciences, Inc (Japan)
Assay: Enzymatic inhibition assay (time-resolved fluorescence, peptide substrate phosphorylation)
Type: biochemical
Conditions: ATP 100 μM, 30 min pre-incubation, 90 min reaction, read-out: WT IC50
Description: Enzymatic Inhibition Assay
The cytoplasmic domain (amino acid 1058-1620) of wild-type human ALK protein expressed as N-terminal GST-fusion protein was purchased from Carna Biosciences, Inc (Japan). Compound solution (2.5 μL) and 5 μL of protein solution were added into a black low volume 384 well microtiter plate which was incubated for 30 minutes with gentle shaking at room temperature, followed by adding 2.5 μL of fluorescently labeled peptide substrate and ATP mixture solution. The kinase reaction was performed in 50 mM HEPES (pH 7.5) with 1 mM EGTA, 1 mM MgCl2, and 2 mM DTT, 0.01% Tween-20 added immediately prior to the assay. Final concentrations of ATP, substrates, and DMSO were 100 μM, 20 nM, and 0.5%, respectively. The final ALK concentrations were […]. The reaction was allowed to proceed for 90 minutes in the dark with gentle shaking at rt after which 10 μL of 20 mM EDTA and 2 nM Eu-W1024 anti-phosphotyrosine antibody (PT66) mixture solution in the detection buffer from the manufacturer was added to terminate the reaction and detect the phosphorylation of the peptide substrate. The final mixture was incubated in the dark for 1 h before the plate was read on a Tecan Infinite M-1000 multi-mode plate reader (Tecan, Durham N.C.) with an excitation wavelength of 320 nm. Emission intensities were measured at both 620 and 665 nm with the intensity ratio between 665 and 620 nm corresponding to the peptide substrate phosphorylation. IC50 values of inhibitors were obtained by fitting the ratio of 665/620 nm vs inhibitor concentrations in a sigmoidal dose-response curve (variable slope) with a non-linear regression.

T1 sequence (Q9UM73 1058-1620): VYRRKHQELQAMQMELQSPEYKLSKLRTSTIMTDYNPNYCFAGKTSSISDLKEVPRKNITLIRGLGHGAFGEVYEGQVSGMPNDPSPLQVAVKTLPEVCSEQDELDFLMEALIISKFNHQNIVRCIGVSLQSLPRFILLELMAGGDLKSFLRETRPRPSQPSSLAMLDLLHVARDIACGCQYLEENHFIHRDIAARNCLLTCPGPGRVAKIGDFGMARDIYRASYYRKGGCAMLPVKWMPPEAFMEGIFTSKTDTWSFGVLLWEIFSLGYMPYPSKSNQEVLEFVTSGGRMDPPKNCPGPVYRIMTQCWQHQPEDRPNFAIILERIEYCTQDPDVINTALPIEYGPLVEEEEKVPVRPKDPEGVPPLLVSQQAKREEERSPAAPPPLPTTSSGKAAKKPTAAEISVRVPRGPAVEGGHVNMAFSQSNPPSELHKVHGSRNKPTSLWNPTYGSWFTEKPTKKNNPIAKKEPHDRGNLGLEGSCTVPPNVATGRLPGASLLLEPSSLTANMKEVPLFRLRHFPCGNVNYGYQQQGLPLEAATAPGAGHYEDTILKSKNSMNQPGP

Compound	IC50 [nM]
COCCOc1cc2c(=O)c3c4ccc(C#N)cc4[nH]c3n(C(C)C)c2c(F)c1N1CCN(C2CCOCC2)CC1 [compound 9, 4-fluoro-5-isopropyl-2-(2-methoxyethoxy)-11-oxo-3-(4-(tetrahydro-2H-pyran-4-yl)piperazin-1-yl)-6,11-dihydro-5H-indolo[2,3-b]quinoline-8-carbonitrile (TFA salt)]	54.4
CC(C)Oc1c(N2C[C@@H](C)N(C)[C@@H](C)C2)cc2c(c1F)c(=O)c1c3ccc(C#N)cc3[nH]c1n2C(C)C [compound 3, 1-fluoro-2-isopropoxy-5-isopropyl-11-oxo-3-(cis-3,4,5-trimethylpiperazin-1-yl)-6,11-dihydro-5H-indolo[2,3-b]quinoline-8-carbonitrile]	0.57
COCCOc1cc2c(=O)c3c4ccc(C#N)cc4[nH]c3n(C(C)C)c2c(F)c1N1C[C@@H](C)N(C)[C@@H](C)C1 [compound 10, 4-f1uoro-5-isopropyl-2-(2-methoxyethoxy)-11-oxo-3-(cis-3,4,5-trimethylpiperazin-1-yl)-6,11-dihydro-5H-indolo[2,3-b]quinoline-8-carbonitrile (TFA salt)]	16.9
CC(C)Oc1cc2c(=O)c3c4ccc(C#N)cc4[nH]c3n(C(C)C)c2c(F)c1N1C[C@@H](C)N(C)[C@@H](C)C1 [compound 11, 4-fluoro-2-isopropoxy-5-isopropyl-11-oxo-(cis-3,4,5-trimethylpiperazin-1-yl)-6,11-dihydro-5H-indolo[2,3-b]quinoline-8-carbonitrile (TFA salt)]	7.8
CC(C)Oc1c(N2CCN(C(C)C)CC2)cc2c(c1F)c(=O)c1c3ccc(C#N)cc3[nH]c1n2C(C)C [compound 4, 1-fluoro-2-isopropoxy-5-isopropyl-3-(4-isopropylpiperazin-1-yl)-11-oxo-6,11-dihydro-5H-indolo[2,3-b]quinoline-8-carbonitrile]	0.83

The remaining compounds from weak to strong by IC50, led by results:

IC50 [nM]	Compound
5.4	COc1c(N2CCN(C3COC3)CC2)cc2c(c1F)c(=O)c1c3ccc(C#N)cc3[nH]c1n2C(C)C [compound 6, 1-fluoro-5-isopropyl-2-methoxy-3-(4-(oxetan-3-yl)piperazin-1-yl)-11-oxo-6,11-dihydro-5H-indolo[2,3-b]quinoline-8-carbonitrile]
4.3	CC(C)Oc1c(N2CCN(C3COC3)CC2)cc2c(c1F)c(=O)c1c3ccc(C#N)cc3[nH]c1n2C(C)C [compound 5, 1-fluoro-2-isopropoxy-5-isopropyl-3-(4-(oxetan-3-yl)piperazin-1-yl)-11-oxo-6,11-dihydro-5H-indolo[2,3-b]quinoline-8-carbonitrile]
2.4	CC(C)Oc1c(N2CCC(N3CCOCC3)CC2)cc2c(c1F)c(=O)c1c3ccc(C#N)cc3[nH]c1n2C(C)C [Cpd. No. 1, 1-fluoro-2-isopropoxy-5-isopropyl-3-(4-morpholinopiperidin-1-yl)-11-oxo-6,11-dihydro-5H-indolo[2,3-b]quinoline-8-carbonitrile]
1.5	CC(C)Oc1c(N2CCN(C3CCOCC3)CC2)cc2c(c1F)c(=O)c1c3ccc(C#N)cc3[nH]c1n2C(C)C [compound 2, 1-fluoro-2-isopropoxy-5-isopropyl-11-oxo-3-(4-(tetrahydro-2H-pyran-4-yl)piperazin-1-yl)-6,11-dihydro-5H-indolo[2,3-b]quinoline-8-carbonitrile]
1.4	COc1c(N2CCN(C3CCOCC3)CC2)cc2c(c1F)c(=O)c1c3ccc(C#N)cc3[nH]c1n2C(C)C [compound 7, 1-fluoro-5-isopropyl-2-methoxy-11-oxo-3-(4-(tetrahydro-2H-pyran-4-yl)piperazin-1-yl)-6,11-dihydro-5H-indolo[2,3-b]quinoline-8-carbontrile]
0.52	COc1c(N2C[C@@H](C)N(C)[C@@H](C)C2)cc2c(c1F)c(=O)c1c3ccc(C#N)cc3[nH]c1n2C(C)C [compound 8, 1-fluoro-5-isopropyl-2-methoxy-11-oxo-3-(cis-3,4,5-trimethylpiperazin-1-yl)-6,11-dihydro-5H-indolo[2,3-b]quinoline-8-carbonitrile]
